The nature of data set [1]: Caco-2 membrane permeability and efflux rate. As to conditions: human, Caco-2, Caco-2, 5 μM. The format is in vitro ADME. The procedure: The recovered Caco-2 cell suspension was seeded into a […] plate and cultured for 14-18 days. After being cultured for 14 days, the cells were fused and differentiated to be ready for a transport experiment. The Caco-2 cell plate was taken out from the incubator. Stock solutions of a to-be-tested compound and a control compound were formulated with DMSO and diluted with an HBSS (10 mM HEPES, pH 7.4) buffer to a final concentration of 5 μM. A test compound solution and a control drug solution were added to each well (top end) of an insert culture plate, and the HBSS (10 mM HEPES, pH 7.4) buffer was added to each well of a test compound receiving plate (basal end). When measuring the transport rate of the compound from the basal end to the top end, the test compound solution and the control drug solution were added to each well of the receiving plate (basal end), the HBSS (10 mM HEPES, pH 7.4) buffer solution was added to each well (top end) of the insert culture plate for the test compound solution, and incubation was carried out for 2 hours in a CO2 incubator at 37° C. After the transport experiment was completed, vortexing was carried out for 10 minutes at 1000 rpm. After sample quenching at each time point, LC/MS/MS analysis was carried out. A fluorescence value was measured after a two-hour transport experiment, a lucifer yellow solution was added in a transwell chamber (top end), a transport buffer solution was added in the basal end, and incubation was carried out for 30 minutes in the CO2 incubator at 37° C. The solution was taken out directly from the top end and the basal end (using basolateral wells) and transferred to a new 96-well plate. A cell fluorescence value was measured by a microplate reader (to detect membrane integrity), an excitation wavelength was […], and an emission wavelength was […]. All data were calculated by using Microsoft Excel, and a peak area was calculated according to chromatograms. An apparent permeability coefficient (Papp, unit: 10-6, cm/s) and an efflux rate (ER) of the compounds in Caco-2 cells were calculated by the specific concentrations of a receiving end and an administering end.

The target in another data set is CDK9/cyclinT1 complex (Homo sapiens, UniProt P50750). Kind of data set: In-vitro enzymatic inhibitory activity testing, CDK9 inhibition assay (Caliper EZ Reader II). The format is biochemical. As to conditions: CDK9/cyclinT1 8 nM, 180 min at 27° C. In a few lines:
(§1)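 Enzyme preincubated 10 min with compound, then peptide substrate plus ATP added in 80 mM MES pH 6.5, 10 mM MgCl2 buffer; 180 min at 27 °C, stopped with EDTA.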

In the next data set the test system is ovarian cancer A2780. Kind of data set: Cell biological activity detection (CyQuant, 72 hours), A2780. The format is cell-based, human. As to conditions: Homo sapiens, A2780, 72 h, A2780 cells, incubation for 72 hours. In short, it runs like this: (§2)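 A2780 and HCC70 cells seeded at 2000/well in RPMI 1640 + 10% FBS, treated next day with 9-point compound dilutions (top 10 μM, 1:4; 0.2% DMSO) for 72 h at 37 °C. Cell number read by CyQuant Direct nucleic acid stain (ex 488 nm); IC50 from dose–response fit.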

In another data set the target is CDK2/cyclinE1 complex (Homo sapiens, UniProt P24941). Kind of data set: In-vitro enzymatic inhibitory activity testing, CDK2 inhibition assay (Caliper EZ Reader II). The format is biochemical. The conditions noted are these: CDK2/cyclinE1 0.5 nM, 180 min at 27° C. In a few lines: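 CDK2/cyclinE1 (0.5 nM) phosphorylated 5-FAM-CDK7tide (2 μM) in MES buffer pH 6.5 with MgCl2, Tween 20 and BSA. Substrate and product were separated electrophoretically on a Caliper EZ Reader II. IC50 values came from nonlinear dose-response fits.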

Data set [2] deals with CDK7/cyclinH/MAT1 complex (Homo sapiens, UniProt P50613). Kind of data set: In-vitro enzymatic inhibitory activity testing, CDK7 inhibition assay (Caliper EZ Reader II). The conditions noted are these: CDK7/cyclinH/MAT1 6 nM, 180 min at 27° C. The format is biochemical. In short, it runs like this: as §1
The target in data set [3] is T1, CDK12 (aa686-1082)/cyclinK complex (Homo sapiens, UniProt Q9NYV4).
T1 construct: A CDK12 (aa686-1082)/cyclinK complex (50 nM)
Kind of data set: In-vitro enzymatic inhibitory activity testing, CDK12 inhibition assay (Caliper EZ Reader II). The format is biochemical. The conditions noted are these: CDK12/cyclinK 50 nM, 180 min at 27° C.; read-out: CDK12 IC50. In short, it runs like this:
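Caliper EZ Reader II mobility-shift separation of 5-FAM-CDK9tide substrate (2 μM) from phosphoproduct, using 50 nM CDK12 (aa686-1082)/cyclinK in 80 mM MES pH 6.5, 10 mM MgCl2, 0.01% Tween 20, 50 ug/mL BSA. Compound pre-incubated 10 min with enzyme, then substrate/ATP added for 180 min at 27° C; EDTA stop. IC50 by nonlinear dose-response regression.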

Data set [4] relates to human breast cancer cells HCC70. Kind of data set: Cell biological activity detection (CyQuant, 72 hours), HCC70. The format is cell-based. As to conditions: incubation for 72 hours. In a few lines:
as §2

SMILES strings stand for the structures. pIC50: −log10 of the molar value. A value given as a limit tells only on which side of the number the result lay.

Sequence of CDK9/cyclinT1 complex (P50750 whole entry, species assumed): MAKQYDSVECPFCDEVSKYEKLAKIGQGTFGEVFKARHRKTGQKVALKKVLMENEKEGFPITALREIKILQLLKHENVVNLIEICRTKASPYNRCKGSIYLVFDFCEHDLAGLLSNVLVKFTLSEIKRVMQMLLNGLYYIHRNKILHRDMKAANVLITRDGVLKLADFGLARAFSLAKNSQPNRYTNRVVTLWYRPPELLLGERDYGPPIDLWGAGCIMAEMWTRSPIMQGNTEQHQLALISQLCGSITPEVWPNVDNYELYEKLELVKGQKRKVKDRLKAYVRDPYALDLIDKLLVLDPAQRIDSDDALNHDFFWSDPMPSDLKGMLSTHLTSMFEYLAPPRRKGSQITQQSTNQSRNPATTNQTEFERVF
Sequence of CDK9/cyclinT1 complex (O60563 whole entry partner, species assumed): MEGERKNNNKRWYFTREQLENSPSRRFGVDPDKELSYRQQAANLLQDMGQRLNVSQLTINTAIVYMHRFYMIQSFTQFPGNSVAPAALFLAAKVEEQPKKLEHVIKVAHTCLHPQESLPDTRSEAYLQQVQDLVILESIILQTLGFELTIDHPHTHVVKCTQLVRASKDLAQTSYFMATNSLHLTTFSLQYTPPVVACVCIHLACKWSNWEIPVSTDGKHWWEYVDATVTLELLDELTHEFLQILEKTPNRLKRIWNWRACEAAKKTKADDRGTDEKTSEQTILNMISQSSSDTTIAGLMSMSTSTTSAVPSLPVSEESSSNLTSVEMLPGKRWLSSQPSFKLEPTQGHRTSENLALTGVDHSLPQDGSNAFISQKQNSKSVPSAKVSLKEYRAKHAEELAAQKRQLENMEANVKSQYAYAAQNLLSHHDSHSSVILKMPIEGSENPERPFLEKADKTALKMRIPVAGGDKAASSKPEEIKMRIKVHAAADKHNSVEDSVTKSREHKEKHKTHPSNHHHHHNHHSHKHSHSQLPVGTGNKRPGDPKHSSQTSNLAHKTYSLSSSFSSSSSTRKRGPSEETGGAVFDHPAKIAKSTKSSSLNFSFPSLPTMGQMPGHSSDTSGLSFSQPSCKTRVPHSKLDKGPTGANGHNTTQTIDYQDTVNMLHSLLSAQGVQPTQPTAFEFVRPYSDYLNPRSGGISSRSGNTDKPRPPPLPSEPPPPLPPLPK
Sequence of CDK7/cyclinH/MAT1 complex (P50613 whole entry, species assumed, the tested form may be a part): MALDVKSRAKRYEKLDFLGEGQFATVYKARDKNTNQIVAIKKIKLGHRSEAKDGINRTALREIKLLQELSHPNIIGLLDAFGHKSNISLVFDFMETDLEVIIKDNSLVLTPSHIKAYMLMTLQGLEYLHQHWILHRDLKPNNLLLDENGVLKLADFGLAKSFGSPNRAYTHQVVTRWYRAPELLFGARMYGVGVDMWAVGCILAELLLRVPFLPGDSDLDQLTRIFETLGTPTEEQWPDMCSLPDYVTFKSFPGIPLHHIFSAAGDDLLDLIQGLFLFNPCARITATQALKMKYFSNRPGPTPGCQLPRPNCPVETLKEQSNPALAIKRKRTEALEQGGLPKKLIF
Sequence of CDK7/cyclinH/MAT1 complex (P51946 whole entry partner, species assumed, the tested form may be a part): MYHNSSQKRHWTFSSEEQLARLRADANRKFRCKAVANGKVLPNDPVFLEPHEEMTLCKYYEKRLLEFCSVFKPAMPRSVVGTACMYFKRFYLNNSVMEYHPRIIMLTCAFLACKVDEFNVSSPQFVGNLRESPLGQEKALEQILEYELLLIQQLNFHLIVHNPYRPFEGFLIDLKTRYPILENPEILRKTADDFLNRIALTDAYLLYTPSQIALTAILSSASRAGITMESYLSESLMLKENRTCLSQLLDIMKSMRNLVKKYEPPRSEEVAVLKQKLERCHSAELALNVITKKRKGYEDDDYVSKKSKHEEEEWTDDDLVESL
Sequence of CDK7/cyclinH/MAT1 complex (P51948 whole entry partner, species assumed, the tested form may be a part): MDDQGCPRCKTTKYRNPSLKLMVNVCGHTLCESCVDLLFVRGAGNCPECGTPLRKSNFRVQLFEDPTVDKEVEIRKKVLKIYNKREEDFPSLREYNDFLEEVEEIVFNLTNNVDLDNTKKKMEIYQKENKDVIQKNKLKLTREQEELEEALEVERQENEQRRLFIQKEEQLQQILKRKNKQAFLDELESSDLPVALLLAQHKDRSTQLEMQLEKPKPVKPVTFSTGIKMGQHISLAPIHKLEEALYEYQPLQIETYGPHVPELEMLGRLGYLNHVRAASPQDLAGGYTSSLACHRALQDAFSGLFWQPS
T1 sequence (Q9NYV4 686-1082, species assumed): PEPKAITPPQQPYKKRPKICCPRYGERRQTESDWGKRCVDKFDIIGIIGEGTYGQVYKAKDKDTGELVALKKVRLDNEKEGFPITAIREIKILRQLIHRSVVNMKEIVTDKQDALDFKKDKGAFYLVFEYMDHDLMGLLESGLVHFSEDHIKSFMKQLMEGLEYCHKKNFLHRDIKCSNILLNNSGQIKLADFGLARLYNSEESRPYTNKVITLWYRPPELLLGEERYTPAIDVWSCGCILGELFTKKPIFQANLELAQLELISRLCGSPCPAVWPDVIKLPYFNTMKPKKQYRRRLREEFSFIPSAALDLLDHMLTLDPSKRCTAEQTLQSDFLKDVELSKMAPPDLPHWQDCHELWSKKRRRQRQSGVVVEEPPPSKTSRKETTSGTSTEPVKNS
T1 sequence (O75909 whole entry partner, species assumed, the tested form may be a part): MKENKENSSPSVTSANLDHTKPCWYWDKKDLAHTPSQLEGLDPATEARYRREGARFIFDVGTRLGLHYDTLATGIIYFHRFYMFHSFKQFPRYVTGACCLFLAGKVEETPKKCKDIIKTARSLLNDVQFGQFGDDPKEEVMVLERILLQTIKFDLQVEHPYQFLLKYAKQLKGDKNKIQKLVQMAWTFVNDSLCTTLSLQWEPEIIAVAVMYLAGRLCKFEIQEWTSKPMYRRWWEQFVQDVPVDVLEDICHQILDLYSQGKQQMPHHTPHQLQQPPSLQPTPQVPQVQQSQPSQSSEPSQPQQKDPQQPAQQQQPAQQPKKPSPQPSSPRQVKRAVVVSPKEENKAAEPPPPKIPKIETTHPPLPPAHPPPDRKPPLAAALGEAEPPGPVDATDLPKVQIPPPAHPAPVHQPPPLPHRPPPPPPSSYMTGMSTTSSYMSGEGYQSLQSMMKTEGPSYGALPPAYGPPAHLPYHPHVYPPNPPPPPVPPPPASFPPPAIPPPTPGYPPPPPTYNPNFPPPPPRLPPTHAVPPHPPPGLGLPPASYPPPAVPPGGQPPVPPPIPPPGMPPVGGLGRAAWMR

For `CP(C)(=O)c1cccc2c(-c3nc(N[C@H]4CCCNC4)ncc3C(F)(F)F)c[nH]c12` [A control compound WO2018013867 (353), reference compound], the basolateral-to-apical permeability (Papp B→A) – broadly, the apparent permeability from the basolateral to the apical side of a cell layer – at 2 h, 5 μM in data set [1] (basal end to top end) amounted to 15.9 ×10⁻⁶ cm/s. Besides, in data set [1] (read-out: ER (efflux rate)), the efflux ratio at 2 h, 5 μM was 70.7. For the same molecule, the Papp A→B (commonly how fast a substance crosses the layer from the apical side) at 2 h, 5 μM in data set [1] (top end to basal end) was 0.23 ×10⁻⁶ cm/s.
In the case of `CP(C)(=O)c1cccc2c(-c3nc(Nc4cn[nH]c4)ncc3C(F)(F)F)c[nH]c12` [Compound 84, (3-(2-((1H-pyrazol-4-yl)amino)-5-(trifluoromethyl)pyrimidin-4-yl)-1H-indole-7-yl)dimethylphosphine oxide], the pIC50 (in general, the IC50 on a negative log10 scale, so that one unit is a factor of ten) against CDK9/cyclinT1 complex was 4.30 to 5.30; in the data set on ovarian cancer A2780 it was over 7.70; against CDK2/cyclinE1 complex, 6.70 to 7.70; in data set [2] it was over 7.70; in data set [3] it was 5.30 to 6.70; in data set [4] (Homo sapiens, HCC70, 72 h) it was over 7.70.
For `CP(C)(=O)c1cccc2c(-c3nc(N[C@H]4CCCC[C@@H]4O)ncc3C(F)(F)F)c[nH]c12` [Compound 165, (3-(2-(((1S,2S)-2-hydroxycyclohexyl)amino)-5-(trifluoromethyl)pyrimidin-4-yl)-1H-indole-7-yl)dimethylphosphine oxide], the pIC50 was under 4.30 against CDK9/cyclinT1 complex; 6.70 to 7.70 in the data set on ovarian cancer A2780; 4.30 to 5.30 on CDK2/cyclinE1 complex; 6.70 to 7.70 in data set [2]; under 4.30 in data set [3]; 6.70 to 7.70 in data set [4] (Homo sapiens, HCC70, 72 h).
As for `CP(C)(=O)c1cccc2c(-c3nc(N[C@@H]4CC[C@@]5(CCNC5)C4)ncc3C(F)(F)F)c[nH]c12` [Compound 99, (3-(2-(((5R,7R)-2-azaspiro[4.4]non-7-yl)amino)-5-(trifluoromethyl)pyrimidin-4-yl)-1H-indole-7-yl)dimethylphosphine oxide], the negative logarithm of the IC50 (pIC50) against CDK9/cyclinT1 complex is 4.30 to 5.30; in the data set on ovarian cancer A2780, over 7.70; against CDK2/cyclinE1 complex it was 5.30 to 6.70; in data set [2] it was over 7.70; in data set [3] it was 5.30 to 6.70; in data set [4] (Homo sapiens, HCC70, 72 h), over 7.70.
As for `FC(F)(F)c1cnc(NC2CCC23CNC3)nc1-c1c[nH]c2nc(N3CCOCC3)ccc12` (stereo not drawn) [Compound 39, N-(4-(6-morpholinyl-1H-pyrrolo[2,3-b]pyridin-3-yl)-5-(trifluoromethyl)pyrimidin-2-yl)-2-azaspiro[3.3]heptan-5-amine], the negative-log IC50 (pIC50) at CDK9/cyclinT1 complex was 4.30 to 5.30; with ovarian cancer A2780 it was 6.70 to 7.70; at CDK2/cyclinE1 complex, 4.30 to 5.30; in data set [2] it was over 7.70; in data set [3], 4.30 to 5.30; in data set [4] (Homo sapiens, HCC70, 72 h), 6.70 to 7.70.
With `CP(C)(=O)c1cccc2c(-c3nc(NCC4(O)CCOCC4)ncc3C(F)(F)F)c[nH]c12` [Compound 175], the negative logarithm of the IC50 (pIC50) was under 4.30 against CDK9/cyclinT1 complex; 5.30 to 6.70 in the data set with ovarian cancer A2780; 4.30 to 5.30 against CDK2/cyclinE1 complex; 6.70 to 7.70 in data set [2]; under 4.30 in data set [3]; 6.70 to 7.70 in data set [4] (Homo sapiens, HCC70, 72 h).
As for `C[C@H]1COCCN1c1ccc2c(-c3nc(N[C@@H]4CCC45CNC5)ncc3C(F)(F)F)c[nH]c2n1` [Compound 67, (R)—N-(4-(6-((S)-3-methylmorpholine)-1H-pyrrolo[2,3-b]pyridin-3-yl)-5-(trifluoromethyl)pyrimidin-2-yl)-2-azaspiro[3.3]heptan-5-amine], the negative-log IC50 (pIC50) is 4.30 to 5.30 on CDK9/cyclinT1 complex; 6.70 to 7.70 in the data set on ovarian cancer A2780; 4.30 to 5.30 at CDK2/cyclinE1 complex; over 7.70 in data set [2]; 4.30 to 5.30 in data set [3]; 6.70 to 7.70 in data set [4] (Homo sapiens, HCC70, 72 h).
Consider `FC(F)(F)c1cnc(NC2CCCC3(CCNCC3)C2)nc1-c1c[nH]c2nc(N3CCOCC3)ccc12` (stereo not drawn) [Compound 41, N-(4-(6-morpholinyl-1H-pyrrolo[2,3-b]pyridin-3-yl)-5-(trifluoromethyl)pyrimidin-2-yl)-3-azaspiro[5.5]undecan-8-amine], for which the negative-log IC50 (pIC50) is 4.30 to 5.30 at CDK9/cyclinT1 complex; 6.70 to 7.70 in the data set with ovarian cancer A2780; 4.30 to 5.30 on CDK2/cyclinE1 complex; 6.70 to 7.70 in data set [2]; 4.30 to 5.30 in data set [3]; 5.30 to 6.70 in data set [4] (Homo sapiens, HCC70, 72 h).
Consider `CP(C)(=O)c1cccc2c(-c3nc(NCC4(CO)CC4)ncc3C(F)(F)F)c[nH]c12` [Compound 160], for which the pIC50 on CDK9/cyclinT1 complex is under 4.30; in the data set on ovarian cancer A2780 it was 5.30 to 6.70; on CDK2/cyclinE1 complex it was 4.30 to 5.30; in data set [2], 6.70 to 7.70; in data set [3] it was under 4.30; in data set [4] (Homo sapiens, HCC70, 72 h) it was 5.30 to 6.70.
As for `CP(C)(=O)c1cccc2c(-c3nc(NCC4(O)CCCC4)ncc3C(F)(F)F)c[nH]c12` [Compound 151], the pIC50 against CDK9/cyclinT1 complex was under 4.30; with ovarian cancer A2780 it was 6.70 to 7.70; against CDK2/cyclinE1 complex it was 4.30 to 5.30; in data set [2], 6.70 to 7.70; in data set [3], under 4.30; in data set [4] (Homo sapiens, HCC70, 72 h) it was 6.70 to 7.70.
For `CP(C)(=O)c1cccc2c(-c3nc(NCC(O)C(F)(F)F)ncc3C(F)(F)F)c[nH]c12` (single isomer, unassigned) [Compound 146], the pIC50 against CDK9/cyclinT1 complex was under 4.30; in the data set on ovarian cancer A2780, 6.70 to 7.70; against CDK2/cyclinE1 complex, 4.30 to 5.30; in data set [2], over 7.70; in data set [3], under 4.30; in data set [4] it was 6.70 to 7.70.
Consider `FC(F)(F)c1cnc(N[C@H]2CCCNC2)nc1-c1c[nH]c2cc(N3CCCC3)ccc12` [Compound 101, (S)—N-(piperidin-3-yl)-4-(6-(pyrrolidin-1-yl)-1H-indole-3-yl)-5-(trifluoromethyl)pyrimidin-2-amine, reference compound], for which the negative-log IC50 (pIC50) against CDK9/cyclinT1 complex is 5.30 to 6.70; in the data set on ovarian cancer A2780, 6.70 to 7.70; against CDK2/cyclinE1 complex, 4.30 to 5.30; in data set [2], 6.70 to 7.70; in data set [3], 5.30 to 6.70; in data set [4] (Homo sapiens, HCC70, 72 h) it was 5.30 to 6.70.
